From ChEMBL document CHEMBL4387728, “Synthetic glycopeptides reveal specific binding pattern and conformational change at O-mannosylated position of α-dystroglycan by POMGnT1 catalyzed GlcNAc modification” (Bioorg Med Chem, 2019)
Active and inactive are the calls of the source. No cut-off for these calls is given here. Peptide text beside a SMILES is read from it. * marks the point of attachment. X1 = CC(=O)N[C@H]1[C@H](O[C@H]2[C@@H](O)[C@H](O)[C@@H](CO)O[C@@H]2*)O[C@H](CO)[C@@H](O[C@@H]2O[C@H](CO)[C@H](O)[C@H](O[C@]3(C(=O)O)C[C@H](O)[C@@H](NC(C)=O)[C@H]([C@H](O)[C@H](O)CO)O3)[C@H]2O)[C@@H]1O; X2 = CC(=O)N[C@H]1[C@H](O[C@H]2[C@@H](O)[C@H](O)[C@@H](CO)O[C@@H]2*)O[C@H](CO)[C@@H](O[C@@H]2O[C@H](CO)[C@H](O)[C@H](O)[C@H]2O)[C@@H]1O; GlcNAc(β1-2)αMan = CC(=O)N[C@H]1[C@H](O[C@H]2[C@@H](O)[C@H](O)[C@@H](CO)O[C@@H]2*)O[C@H](CO)[C@@H](O)[C@@H]1O; Hexanoyl(5-oxo) = CC(=O)CCCC(=O)*

Experiments:
[1] = test system: Maackia amurensis; assay: Binding affinity to biotin-labeled Maackia amurensis agglutinin in pH 7.4 Tris buffer by fluorescence microarray method
[2] = test system: Datura stramonium; assay: Binding affinity to biotin-labeled Datura stramonium agglutinin in pH 7.4 Tris buffer by fluorescence microarray method
[3] = test system: Triticum aestivum; assay: Binding affinity to biotin-labeled Wheat germ agglutinin in pH 7.4 Tris buffer by fluorescence microarray method
[4] = molecular target: Laminin subunit alpha-1 (Homo sapiens) (UniProt P25391); assay: Binding affinity to biotin-labeled human recombinant laminin-1 at 10 ug/ml in pH 5.6 MES buffer by fluorescence microarray method
Chain of Laminin subunit alpha-1 (Homo sapiens) (P25391 whole entry): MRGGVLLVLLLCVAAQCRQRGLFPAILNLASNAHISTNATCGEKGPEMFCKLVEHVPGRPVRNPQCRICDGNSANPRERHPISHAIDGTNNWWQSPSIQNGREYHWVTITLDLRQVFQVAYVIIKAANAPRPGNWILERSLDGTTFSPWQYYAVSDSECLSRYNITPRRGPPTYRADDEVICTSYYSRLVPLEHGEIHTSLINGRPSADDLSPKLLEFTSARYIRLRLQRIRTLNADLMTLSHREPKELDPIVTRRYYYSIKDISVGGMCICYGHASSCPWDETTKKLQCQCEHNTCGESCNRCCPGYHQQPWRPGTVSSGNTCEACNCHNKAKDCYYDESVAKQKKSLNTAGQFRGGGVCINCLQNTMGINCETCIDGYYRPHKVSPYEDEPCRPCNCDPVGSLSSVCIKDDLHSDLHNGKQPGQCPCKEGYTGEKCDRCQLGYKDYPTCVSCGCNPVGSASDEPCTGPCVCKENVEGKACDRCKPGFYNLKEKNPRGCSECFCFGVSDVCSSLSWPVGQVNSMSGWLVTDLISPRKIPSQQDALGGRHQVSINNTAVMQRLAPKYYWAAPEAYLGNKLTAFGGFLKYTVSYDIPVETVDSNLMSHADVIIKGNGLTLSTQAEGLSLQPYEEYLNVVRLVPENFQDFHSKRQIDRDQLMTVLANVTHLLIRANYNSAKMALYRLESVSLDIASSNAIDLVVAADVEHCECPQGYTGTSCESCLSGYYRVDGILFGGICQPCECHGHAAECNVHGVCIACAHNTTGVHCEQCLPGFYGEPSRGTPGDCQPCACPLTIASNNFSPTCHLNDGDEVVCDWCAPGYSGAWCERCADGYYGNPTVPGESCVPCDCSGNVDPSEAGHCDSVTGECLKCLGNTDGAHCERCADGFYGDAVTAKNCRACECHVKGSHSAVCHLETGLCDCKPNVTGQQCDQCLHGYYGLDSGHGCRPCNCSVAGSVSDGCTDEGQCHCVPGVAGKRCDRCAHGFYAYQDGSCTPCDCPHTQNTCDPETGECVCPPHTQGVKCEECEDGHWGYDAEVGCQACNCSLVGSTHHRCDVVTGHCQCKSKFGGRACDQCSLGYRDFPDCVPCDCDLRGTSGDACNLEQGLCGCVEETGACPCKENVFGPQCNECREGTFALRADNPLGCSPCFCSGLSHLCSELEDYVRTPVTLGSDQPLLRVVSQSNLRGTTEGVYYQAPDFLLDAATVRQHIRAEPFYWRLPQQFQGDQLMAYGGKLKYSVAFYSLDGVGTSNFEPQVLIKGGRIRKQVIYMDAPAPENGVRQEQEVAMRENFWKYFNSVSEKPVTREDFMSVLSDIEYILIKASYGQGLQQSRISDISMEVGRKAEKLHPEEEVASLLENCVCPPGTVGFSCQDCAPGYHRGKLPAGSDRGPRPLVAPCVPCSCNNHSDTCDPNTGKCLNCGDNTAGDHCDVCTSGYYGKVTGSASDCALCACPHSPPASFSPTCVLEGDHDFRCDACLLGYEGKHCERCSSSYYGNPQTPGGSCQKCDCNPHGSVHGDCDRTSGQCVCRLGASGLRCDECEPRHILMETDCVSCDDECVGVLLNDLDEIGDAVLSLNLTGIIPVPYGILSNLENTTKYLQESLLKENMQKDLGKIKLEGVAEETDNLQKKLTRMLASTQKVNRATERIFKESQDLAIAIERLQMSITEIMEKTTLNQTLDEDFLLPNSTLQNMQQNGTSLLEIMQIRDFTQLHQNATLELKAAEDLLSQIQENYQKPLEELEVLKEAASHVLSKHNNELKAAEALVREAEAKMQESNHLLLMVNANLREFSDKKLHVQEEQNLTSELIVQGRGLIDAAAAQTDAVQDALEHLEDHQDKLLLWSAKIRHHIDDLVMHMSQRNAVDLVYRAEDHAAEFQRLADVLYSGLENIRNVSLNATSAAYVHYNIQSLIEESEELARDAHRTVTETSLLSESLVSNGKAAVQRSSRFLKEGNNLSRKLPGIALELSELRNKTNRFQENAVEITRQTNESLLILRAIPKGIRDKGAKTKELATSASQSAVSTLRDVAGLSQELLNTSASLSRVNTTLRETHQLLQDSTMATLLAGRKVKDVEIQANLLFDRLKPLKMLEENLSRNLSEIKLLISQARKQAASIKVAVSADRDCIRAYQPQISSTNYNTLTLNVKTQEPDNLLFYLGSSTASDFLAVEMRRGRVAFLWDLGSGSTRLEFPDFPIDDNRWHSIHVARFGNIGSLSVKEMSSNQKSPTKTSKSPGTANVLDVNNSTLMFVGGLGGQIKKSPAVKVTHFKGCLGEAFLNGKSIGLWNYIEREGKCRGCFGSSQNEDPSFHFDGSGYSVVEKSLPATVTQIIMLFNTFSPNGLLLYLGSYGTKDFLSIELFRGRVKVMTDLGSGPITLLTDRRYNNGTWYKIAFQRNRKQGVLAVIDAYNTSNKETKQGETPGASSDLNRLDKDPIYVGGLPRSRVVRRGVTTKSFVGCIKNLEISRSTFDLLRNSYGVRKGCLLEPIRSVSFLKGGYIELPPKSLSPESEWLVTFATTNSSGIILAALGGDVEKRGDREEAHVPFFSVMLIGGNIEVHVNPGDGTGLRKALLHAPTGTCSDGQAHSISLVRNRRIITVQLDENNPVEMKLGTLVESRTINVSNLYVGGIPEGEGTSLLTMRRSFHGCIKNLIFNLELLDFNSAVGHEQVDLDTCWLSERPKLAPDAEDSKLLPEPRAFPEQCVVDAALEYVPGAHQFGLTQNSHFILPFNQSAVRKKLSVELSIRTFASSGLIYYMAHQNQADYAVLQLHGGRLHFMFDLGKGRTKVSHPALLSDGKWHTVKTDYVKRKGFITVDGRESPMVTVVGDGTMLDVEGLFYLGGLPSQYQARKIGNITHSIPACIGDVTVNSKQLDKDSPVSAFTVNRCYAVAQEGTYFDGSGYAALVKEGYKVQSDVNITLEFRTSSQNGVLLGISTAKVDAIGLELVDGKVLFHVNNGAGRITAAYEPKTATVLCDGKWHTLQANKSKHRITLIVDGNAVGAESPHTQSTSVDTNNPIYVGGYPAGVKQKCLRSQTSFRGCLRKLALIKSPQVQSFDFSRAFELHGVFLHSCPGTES

[5] = molecular target: Laminin subunit alpha-1 (Homo sapiens) (UniProt P25391); assay: Binding affinity to biotin-labeled human recombinant laminin-1 at 10 ug/ml in pH 7.4 Tris buffer by fluorescence microarray method
[6] = molecular target: Lactotransferrin (Homo sapiens) (UniProt P02788); assay: Binding affinity to biotin-labeled lactoferrin (unknown origin) at 10 ug/ml in pH 7.4 Tris buffer by fluorescence microarray method
Chain of Lactotransferrin (Homo sapiens) (P02788 whole entry): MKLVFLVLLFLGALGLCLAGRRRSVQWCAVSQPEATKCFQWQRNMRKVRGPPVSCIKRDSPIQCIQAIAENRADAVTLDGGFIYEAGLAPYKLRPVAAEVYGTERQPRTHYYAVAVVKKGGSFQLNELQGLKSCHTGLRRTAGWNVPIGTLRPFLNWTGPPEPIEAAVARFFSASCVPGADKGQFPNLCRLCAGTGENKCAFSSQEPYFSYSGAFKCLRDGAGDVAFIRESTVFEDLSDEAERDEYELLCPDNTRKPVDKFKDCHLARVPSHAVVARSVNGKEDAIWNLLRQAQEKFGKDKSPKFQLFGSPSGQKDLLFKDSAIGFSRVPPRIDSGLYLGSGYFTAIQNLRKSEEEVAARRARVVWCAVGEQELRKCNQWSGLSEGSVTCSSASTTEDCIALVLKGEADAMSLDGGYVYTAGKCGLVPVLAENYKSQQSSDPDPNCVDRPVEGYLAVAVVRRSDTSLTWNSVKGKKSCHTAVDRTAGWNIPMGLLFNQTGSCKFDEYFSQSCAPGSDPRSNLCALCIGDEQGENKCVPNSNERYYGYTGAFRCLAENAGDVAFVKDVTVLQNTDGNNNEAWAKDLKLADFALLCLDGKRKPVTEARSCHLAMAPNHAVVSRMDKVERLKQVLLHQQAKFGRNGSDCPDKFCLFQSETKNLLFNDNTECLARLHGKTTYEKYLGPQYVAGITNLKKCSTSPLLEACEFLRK

[7] = test system: Erythrina crista-galli; assay: Binding affinity to biotin-labeled Erythrina crista-galli agglutinin in pH 7.4 Tris buffer by fluorescence microarray method
[8] = test system: Canavalia ensiformis; assay: Binding affinity to biotin-labeled Canavalia ensiformis agglutinin in pH 7.4 Tris buffer by fluorescence microarray method
[9] = test system: Sambucus racemosa subsp. sieboldiana; assay: Binding affinity to biotin-labeled Sambucus sieboldiana agglutinin in pH 7.4 Tris buffer by fluorescence microarray method
[10] = test system: Arachis hypogaea; assay: Binding affinity to biotin-labeled Arachis hypogaea agglutinin in pH 7.4 Tris buffer by fluorescence microarray method
[11] = Binding affinity to biotin-labeled Agaricus bisporus agglutinin in pH 7.4 Tris buffer by fluorescence microarray method
[12] = molecular target: Lactotransferrin (Homo sapiens) (UniProt P02788); assay: Binding affinity to biotin-labeled lactoferrin (unknown origin) at 10 ug/ml in pH 5.6 MES buffer by fluorescence microarray method
[13] = species on record: Homo sapiens; assay: Binding affinity to biotin-labeled human recombinant laminin-2 at 10 ug/ml in pH 7.4 Tris buffer by fluorescence microarray method
[14] = species on record: Homo sapiens; assay: Binding affinity to biotin-labeled human recombinant laminin-2 at 10 ug/ml in 5.6 MES buffer by fluorescence microarray method

SMILES	Activity [1]	Activity [2]	Activity [3]	Activity [4]	Activity [5]	Activity [6]	Activity [7]	Activity [8]	Activity [9]	Activity [10]	Activity [11]	Activity [12]	Activity [13]	Activity [14]
CC[C@H](C)[C@H](NC(=O)[C@H](C)NC(=O)CNC(=O)[C@H](CCCNC(=N)N)NC(=O)[C@@H](NC(=O)CCCC(C)=O)[C@@H](C)O)C(=O)N[C@H](C(=O)N[C@@H](CCC(N)=O)C(=O)N[C@H](C(=O)N1CCC[C@H]1C(=O)N[C@H](C(=O)N[C@@H](CC(C)C)C(=O)NCC(=O)N1CCC[C@H]1C(=O)N[C@H](C(=O)N[C@@H](CCC(N)=O)C(=O)N1CCC[C@H]1C(=O)N[C@H](C(=O)N[C@@H](CCCNC(=N)N)C(=O)N[C@H](C(N)=O)C(C)C)[C@@H](C)O)[C@@H](C)CC)[C@@H](C)O)[C@@H](C)O[C@H]1O[C@H](CO)[C@@H](O)[C@H](O)[C@@H]1O[C@@H]1O[C@H](CO)[C@@H](O[C@@H]2O[C@H](CO)[C@H](O)[C@H](O[C@]3(C(=O)O)C[C@H](O)[C@@H](NC(C)=O)[C@H]([C@H](O)[C@H](O)CO)O3)[C@H]2O)[C@H](O)[C@H]1NC(C)=O)[C@@H](C)CC ({Hexanoyl(5-oxo)}-TRGAIIQT(X1)PTLGPIQPTRV-NH2)	inactive	inactive	Active	Active	Active	inactive	Active	Active	Active	Active	Active	Active	inactive	Active
CC[C@H](C)[C@H](NC(=O)[C@H](C)NC(=O)CNC(=O)[C@H](CCCNC(=N)N)NC(=O)[C@@H](NC(=O)CCCC(C)=O)[C@@H](C)O)C(=O)N[C@H](C(=O)N[C@@H](CCC(N)=O)C(=O)N[C@H](C(=O)N1CCC[C@H]1C(=O)N[C@H](C(=O)N[C@@H](CC(C)C)C(=O)NCC(=O)N1CCC[C@H]1C(=O)N[C@H](C(=O)N[C@@H](CCC(N)=O)C(=O)N1CCC[C@H]1C(=O)N[C@H](C(=O)N[C@@H](CCCNC(=N)N)C(=O)N[C@H](C(N)=O)C(C)C)[C@@H](C)O[C@H]1O[C@H](CO)[C@@H](O)[C@H](O)[C@@H]1O[C@@H]1O[C@H](CO)[C@@H](O)[C@H](O)[C@H]1NC(C)=O)[C@@H](C)CC)[C@@H](C)O)[C@@H](C)O)[C@@H](C)CC ({Hexanoyl(5-oxo)}-TRGAIIQTPTLGPIQPT(GlcNAc(β1-2)αMan)RV-NH2)	inactive	inactive	Active	Active	Active	inactive	Active	Active	Active	Active	Active	Active	inactive	Active

Second part, the compound after the results:

Activity [1]	Activity [2]	Activity [3]	Activity [4]	Activity [5]	Activity [6]	Activity [7]	Activity [8]	Activity [9]	Activity [10]	Activity [11]	Activity [12]	Activity [13]	Activity [14]	SMILES
inactive	inactive	Active	Active	Active	inactive	Active	Active	Active	Active	Active	Active	inactive	Active	CC[C@H](C)[C@H](NC(=O)[C@H](C)NC(=O)CNC(=O)[C@H](CCCNC(=N)N)NC(=O)[C@@H](NC(=O)CCCC(C)=O)[C@@H](C)O)C(=O)N[C@H](C(=O)N[C@@H](CCC(N)=O)C(=O)N[C@H](C(=O)N1CCC[C@H]1C(=O)N[C@H](C(=O)N[C@@H](CC(C)C)C(=O)NCC(=O)N1CCC[C@H]1C(=O)N[C@H](C(=O)N[C@@H](CCC(N)=O)C(=O)N1CCC[C@H]1C(=O)N[C@H](C(=O)N[C@@H](CCCNC(=N)N)C(=O)N[C@H](C(N)=O)C(C)C)[C@@H](C)O)[C@@H](C)CC)[C@@H](C)O[C@H]1O[C@H](CO)[C@@H](O)[C@H](O)[C@@H]1O[C@@H]1O[C@H](CO)[C@@H](O[C@@H]2O[C@H](CO)[C@H](O)[C@H](O)[C@H]2O)[C@H](O)[C@H]1NC(C)=O)[C@@H](C)O[C@H]1O[C@H](CO)[C@@H](O)[C@H](O)[C@@H]1O[C@@H]1O[C@H](CO)[C@@H](O[C@@H]2O[C@H](CO)[C@H](O)[C@H](O)[C@H]2O)[C@H](O)[C@H]1NC(C)=O)[C@@H](C)CC ({Hexanoyl(5-oxo)}-TRGAIIQT(X2)PT(X2)LGPIQPTRV-NH2)
inactive	inactive	Active	Active	Active	inactive	Active	Active	Active	Active	Active	Active	inactive	Active	CC[C@H](C)[C@H](NC(=O)[C@H](C)NC(=O)CNC(=O)[C@H](CCCNC(=N)N)NC(=O)[C@@H](NC(=O)CCCC(C)=O)[C@@H](C)O)C(=O)N[C@H](C(=O)N[C@@H](CCC(N)=O)C(=O)N[C@H](C(=O)N1CCC[C@H]1C(=O)N[C@H](C(=O)N[C@@H](CC(C)C)C(=O)NCC(=O)N1CCC[C@H]1C(=O)N[C@H](C(=O)N[C@@H](CCC(N)=O)C(=O)N1CCC[C@H]1C(=O)N[C@H](C(=O)N[C@@H](CCCNC(=N)N)C(=O)N[C@H](C(N)=O)C(C)C)[C@@H](C)O)[C@@H](C)CC)[C@@H](C)O[C@H]1O[C@H](CO)[C@@H](O)[C@H](O)[C@@H]1O[C@@H]1O[C@H](CO)[C@@H](O[C@@H]2O[C@H](CO)[C@H](O)[C@H](O)[C@H]2O)[C@H](O)[C@H]1NC(C)=O)[C@@H](C)O)[C@@H](C)CC ({Hexanoyl(5-oxo)}-TRGAIIQTPT(X2)LGPIQPTRV-NH2)
inactive	inactive	Active	Active	Active	inactive	Active	Active	Active	Active	Active	Active	inactive	Active	CC[C@H](C)[C@H](NC(=O)[C@H](C)NC(=O)CNC(=O)[C@H](CCCNC(=N)N)NC(=O)[C@@H](NC(=O)CCCC(C)=O)[C@@H](C)O)C(=O)N[C@H](C(=O)N[C@@H](CCC(N)=O)C(=O)N[C@H](C(=O)N1CCC[C@H]1C(=O)N[C@H](C(=O)N[C@@H](CC(C)C)C(=O)NCC(=O)N1CCC[C@H]1C(=O)N[C@H](C(=O)N[C@@H](CCC(N)=O)C(=O)N1CCC[C@H]1C(=O)N[C@H](C(=O)N[C@@H](CCCNC(=N)N)C(=O)N[C@H](C(N)=O)C(C)C)[C@@H](C)O[C@H]1O[C@H](CO)[C@@H](O)[C@H](O)[C@@H]1O[C@@H]1O[C@H](CO)[C@@H](O[C@@H]2O[C@H](CO)[C@H](O)[C@H](O[C@]3(C(=O)O)C[C@H](O)[C@@H](NC(C)=O)[C@H]([C@H](O)[C@H](O)CO)O3)[C@H]2O)[C@H](O)[C@H]1NC(C)=O)[C@@H](C)CC)[C@@H](C)O)[C@@H](C)O[C@H]1O[C@H](CO)[C@@H](O)[C@H](O)[C@@H]1O[C@@H]1O[C@H](CO)[C@@H](O[C@@H]2O[C@H](CO)[C@H](O)[C@H](O[C@]3(C(=O)O)C[C@H](O)[C@@H](NC(C)=O)[C@H]([C@H](O)[C@H](O)CO)O3)[C@H]2O)[C@H](O)[C@H]1NC(C)=O)[C@@H](C)CC ({Hexanoyl(5-oxo)}-TRGAIIQT(X1)PTLGPIQPT(X1)RV-NH2)
